Tested on: AsPC1 tumors
Test: Efficacy study in mice bearing subcutaneous AsPC1 tumors (tumor volume)
Type: in vivo, SWISS Nude mice
Details: single treatments; FOLFIRINOX (Group 2) or ^177Lu-IPN01087 20 MBq/mouse IV weekly x3 (Group 3); FIG. 2
Procedure: Example 1: Efficacy Study on Animals Induced with AsPC1 Cells
The AsPC1 cell line was isolated from a metastatic site (ascites) from a patient (Chen WH. et al., In Vitro. 1982 January; 18(1):24-34).
Tumor cells were grown as monolayer at 37° C. in a humidified atmosphere (5% C02, 95% air). The culture medium is RPMI 1640 containing glutamax supplemented with 10% heat inactivated fetal bovine serum, sodium pyruvate and hepes. For experimental use, tumor cells were detached from the culture flask using accutase and neutralized by addition of complete culture medium. The cells were counted and their viability was assessed by 0.25% trypan blue exclusion assay. Two frozen pellets of AsPC-1 tumor cells were prepared: one frozen cell pellet prepared during the in-vitro cell culture, and one frozen cell pellet prepared using the cell suspension used for tumor induction in mice.
One hundred fifty (150) healthy female SWISS Nude mice (Crl:NU(Ico)-Foxn1 nu), 7 weeks old at reception, were obtained from Charles River.
Tumors were induced by subcutaneous injection of ten million (107) AsPC-1 cells in 200 μL of RPMI 1640 medium containing matrigel (50:50, v:v, ref: 356237, BD Biosciences, France) into the right flank (in the axis of the heart) of 150 female animals. […]

Substance: ^177Lu-zalsenertant tetraxetan [^177Lu-IPN01087]
- AsPC-1 tumor growth, antitumor effect compared to the vehicles: produced an antitumor effect
